Source: ChEMBL document CHEMBL5665443, “Enzyme Inhibitor Single Concentration assay results for EUbOPEN Chemogenomics Library” (2024)

Key:
[1] = target: Endonuclease 8-like 1 (Homo sapiens) (UniProt Q96FI4); details: Hit No;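 note: fluorescence at 594 nm from quenched duplex DNA oligonucleotides released by NEIL1 cleavage and strand separation, reported as reduction of this enzyme activity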
Description: Inhibition of NEIL1 by quantifying inhibition of NEIL1-mediated cleavage and dissociation of quenched duplex DNA oligonucleotides, measured as fluorescence at 594 nm.

[2] = target: N-glycosylase/DNA lyase (Homo sapiens) (UniProt O15527); details: Hit No;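 note: OGG1 cleavage of a quenched duplex DNA oligonucleotide, coupled to APE1 for strand incision, read as fluorescence at 594 nm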
Sequence of N-glycosylase/DNA lyase (Homo sapiens) (O15527 whole entry): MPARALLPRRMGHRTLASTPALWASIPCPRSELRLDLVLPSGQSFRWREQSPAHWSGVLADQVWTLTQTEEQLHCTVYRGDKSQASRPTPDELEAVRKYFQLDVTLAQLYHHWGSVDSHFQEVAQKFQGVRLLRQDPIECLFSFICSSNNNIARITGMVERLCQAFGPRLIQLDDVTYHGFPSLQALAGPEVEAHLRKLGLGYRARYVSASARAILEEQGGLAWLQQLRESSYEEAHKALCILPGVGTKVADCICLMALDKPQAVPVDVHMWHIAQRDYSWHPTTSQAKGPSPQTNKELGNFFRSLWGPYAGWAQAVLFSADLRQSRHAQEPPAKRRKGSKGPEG
Description: Inhibition of OGG1 by quantifying inhibition of OGG1-mediated cleavage and dissociation of quenched duplex DNA oligonucleotides, measured as fluorescence at 594 nm. To generate a functional strand incision and increase turn-over this assay is coupled to APE1.

[3] = target: T1, Single-strand selective monofunctional uracil DNA glycosylase (Homo sapiens) (UniProt Q53HV7); details: Hit No;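 note: enzymatic SMUG1 assay coupled with APE1, reading fluorescence at 594 nm released when a quenched double-stranded DNA oligonucleotide substrate is cleaved and separated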
T1 sequence (whole entry): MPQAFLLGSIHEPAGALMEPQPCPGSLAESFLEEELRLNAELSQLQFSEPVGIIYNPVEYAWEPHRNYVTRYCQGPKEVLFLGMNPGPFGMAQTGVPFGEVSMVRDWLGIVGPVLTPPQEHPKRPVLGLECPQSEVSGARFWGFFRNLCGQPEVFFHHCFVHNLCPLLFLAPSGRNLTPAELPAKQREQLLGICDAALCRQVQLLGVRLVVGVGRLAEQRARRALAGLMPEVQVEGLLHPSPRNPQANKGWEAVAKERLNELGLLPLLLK
Description: Inhibition of SMUG1 by quantifying inhibition of SMUG1-mediated cleavage and dissociation of quenched duplex DNA oligonucleotides, measured as fluorescence at 594 nm. To generate a functional strand incision and increase turn-over this assay is coupled to APE1.

[4] = target: G/T mismatch-specific thymine DNA glycosylase (Homo sapiens) (UniProt Q13569);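 note: human TDG cleavage of quenched duplex DNA oligonucleotides coupled to APE1, strand release read as fluorescence at 594 nm, inhibition of TDG activity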
Sequence of G/T mismatch-specific thymine DNA glycosylase (Homo sapiens) (Q13569 whole entry): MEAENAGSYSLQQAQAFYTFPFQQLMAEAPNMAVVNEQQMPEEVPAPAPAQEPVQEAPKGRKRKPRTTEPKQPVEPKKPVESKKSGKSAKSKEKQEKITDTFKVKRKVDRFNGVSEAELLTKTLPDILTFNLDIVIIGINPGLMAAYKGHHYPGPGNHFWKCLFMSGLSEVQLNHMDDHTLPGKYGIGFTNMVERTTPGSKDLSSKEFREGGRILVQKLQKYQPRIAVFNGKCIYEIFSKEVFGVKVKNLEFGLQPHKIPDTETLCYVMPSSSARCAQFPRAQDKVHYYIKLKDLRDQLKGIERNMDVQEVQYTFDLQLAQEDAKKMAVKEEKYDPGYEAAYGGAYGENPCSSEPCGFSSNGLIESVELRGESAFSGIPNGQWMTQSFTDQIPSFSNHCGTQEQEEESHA
Description: Inhibition of TDG by quantifying inhibition of TDG-mediated cleavage and dissociation of quenched duplex DNA oligonucleotides, measured as fluorescence at 594 nm. To generate a functional strand incision and increase turn-over this assay is coupled to APE1.

[5] = target: T2, Endonuclease III-like protein 1 (Homo sapiens) (UniProt P78549); details: Hit No;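 note: enzyme assay tracking NTHL1 cutting and release of a quenched double-stranded DNA oligo substrate, read as fluorescence at 594 nm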
T2 sequence (whole entry): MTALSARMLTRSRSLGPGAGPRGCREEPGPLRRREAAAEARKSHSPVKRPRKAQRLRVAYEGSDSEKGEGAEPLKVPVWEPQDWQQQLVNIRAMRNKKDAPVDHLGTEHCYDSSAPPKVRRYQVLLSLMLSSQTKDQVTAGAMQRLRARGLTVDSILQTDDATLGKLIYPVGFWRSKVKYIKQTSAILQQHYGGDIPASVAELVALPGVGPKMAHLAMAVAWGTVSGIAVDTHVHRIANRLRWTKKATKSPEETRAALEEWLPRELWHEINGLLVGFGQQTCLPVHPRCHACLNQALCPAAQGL
Description: Inhibition of NTHL1 by quantifying inhibition of NTHL1-mediated cleavage and dissociation of quenched duplex DNA oligonucleotides, measured as fluorescence at 594 nm.

[6] = target: Uracil-DNA glycosylase (Homo sapiens) (UniProt P13051); details: Hit No;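 note: UNG excision on a quenched double-stranded DNA oligo probe, with APE1 added for strand incision and turnover, read as fluorescence at 594 nm as strands separate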
Sequence of Uracil-DNA glycosylase (Homo sapiens) (P13051 whole entry, the tested form may be a part): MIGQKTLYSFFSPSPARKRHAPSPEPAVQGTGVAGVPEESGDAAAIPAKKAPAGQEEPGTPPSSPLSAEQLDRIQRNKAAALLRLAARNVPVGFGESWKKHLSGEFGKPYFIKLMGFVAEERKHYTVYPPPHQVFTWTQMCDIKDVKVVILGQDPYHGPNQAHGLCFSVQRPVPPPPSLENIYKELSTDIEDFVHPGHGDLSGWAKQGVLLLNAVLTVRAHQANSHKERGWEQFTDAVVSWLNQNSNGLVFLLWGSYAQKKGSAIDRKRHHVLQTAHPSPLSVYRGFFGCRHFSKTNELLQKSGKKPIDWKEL
Description: Inhibition of UNG by quantifying inhibition of UNG-mediated cleavage and dissociation of quenched duplex DNA oligonucleotides, measured as fluorescence at 594 nm. To generate a functional strand incision and increase turn-over this assay is coupled to APE1.

[7] = target: Methyl-CpG-binding domain protein 4 (Homo sapiens) (UniProt O95243);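 note: MBD4 activity read as fluorescence at 594 nm from cleavage and release of a quenched duplex DNA oligonucleotide, with APE1 coupled to incise the strand and raise turnover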
Sequence of Methyl-CpG-binding domain protein 4 (Homo sapiens) (O95243 whole entry, the tested form may be a part): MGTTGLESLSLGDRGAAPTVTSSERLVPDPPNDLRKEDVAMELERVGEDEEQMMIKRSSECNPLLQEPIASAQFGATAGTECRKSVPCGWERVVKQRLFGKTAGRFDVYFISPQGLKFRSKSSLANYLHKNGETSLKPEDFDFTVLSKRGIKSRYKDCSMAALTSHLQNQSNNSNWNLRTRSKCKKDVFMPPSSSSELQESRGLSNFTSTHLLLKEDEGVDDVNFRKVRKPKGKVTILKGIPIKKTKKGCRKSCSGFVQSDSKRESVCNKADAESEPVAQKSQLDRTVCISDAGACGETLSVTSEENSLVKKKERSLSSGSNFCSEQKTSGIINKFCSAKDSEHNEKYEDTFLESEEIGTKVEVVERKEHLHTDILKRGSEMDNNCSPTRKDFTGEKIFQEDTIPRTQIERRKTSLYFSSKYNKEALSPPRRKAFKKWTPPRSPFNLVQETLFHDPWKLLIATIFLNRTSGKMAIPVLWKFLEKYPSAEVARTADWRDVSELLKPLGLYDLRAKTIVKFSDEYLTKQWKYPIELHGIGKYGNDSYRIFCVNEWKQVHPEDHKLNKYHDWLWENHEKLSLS
Description: Inhibition of MBD4 by quantifying inhibition of MBD4-mediated cleavage and dissociation of quenched duplex DNA oligonucleotides, measured as fluorescence at 594 nm. To generate a functional strand incision and increase turn-over this assay is coupled to APE1.

[8] = target: T3, Adenine DNA glycosylase (Homo sapiens) (UniProt Q9UIF7); details: Hit No;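 note: human MUTYH activity read as 594 nm fluorescence from cleavage and release of a quenched DNA duplex, coupled with APE1 for strand incision, lower signal meaning inhibition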
T3 sequence (whole entry): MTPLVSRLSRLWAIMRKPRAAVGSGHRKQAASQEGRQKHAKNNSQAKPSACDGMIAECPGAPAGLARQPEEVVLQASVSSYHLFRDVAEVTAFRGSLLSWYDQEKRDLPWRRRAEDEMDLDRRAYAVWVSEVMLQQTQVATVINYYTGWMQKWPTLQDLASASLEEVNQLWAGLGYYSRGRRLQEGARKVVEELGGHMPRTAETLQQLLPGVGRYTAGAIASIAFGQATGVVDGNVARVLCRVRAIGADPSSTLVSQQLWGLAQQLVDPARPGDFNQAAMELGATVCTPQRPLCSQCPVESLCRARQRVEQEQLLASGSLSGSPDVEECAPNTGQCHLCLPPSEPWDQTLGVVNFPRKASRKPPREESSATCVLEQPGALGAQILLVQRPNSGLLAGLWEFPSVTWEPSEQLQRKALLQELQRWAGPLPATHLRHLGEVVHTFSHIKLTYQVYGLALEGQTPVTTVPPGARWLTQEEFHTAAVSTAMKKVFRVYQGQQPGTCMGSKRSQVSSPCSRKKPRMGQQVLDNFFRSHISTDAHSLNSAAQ
Description: Inhibition of MUTYH by quantifying inhibition of MUTYH-mediated cleavage and dissociation of quenched duplex DNA oligonucleotides, measured as fluorescence at 594 nm. To generate a functional strand incision and increase turn-over this assay is coupled to APE1.

[9] = target: T4, Endonuclease 8-like 2 (Homo sapiens) (UniProt Q969S2); details: Compound Concentration 10.0 uM, Hit No;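 note: fluorescence at 594 nm reports NEIL2 cutting and release of a quenched double-stranded DNA oligo substrate, reduced signal read as inhibition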
T4 sequence (whole entry): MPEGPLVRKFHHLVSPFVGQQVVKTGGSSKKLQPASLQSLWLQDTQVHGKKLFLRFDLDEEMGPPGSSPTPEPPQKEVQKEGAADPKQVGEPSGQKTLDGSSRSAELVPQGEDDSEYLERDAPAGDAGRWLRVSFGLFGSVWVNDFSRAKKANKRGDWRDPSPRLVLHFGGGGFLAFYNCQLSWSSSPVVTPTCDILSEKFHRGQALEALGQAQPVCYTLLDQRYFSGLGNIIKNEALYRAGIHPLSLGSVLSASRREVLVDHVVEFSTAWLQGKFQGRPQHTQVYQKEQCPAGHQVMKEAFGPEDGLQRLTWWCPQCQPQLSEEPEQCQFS
Description: Inhibition of NEIL2 by quantifying inhibition of NEIL2-mediated cleavage and dissociation of quenched duplex DNA oligonucleotides, measured as fluorescence at 594 nm.

[10] = Compound Concentration 1.0 uM, Hit No
[11] = Compound Concentration 10.0 uM, Hit No
[12] = Compound Concentration 10.0 uM, Hit Yes

Sequence of Endonuclease 8-like 1 (Homo sapiens) (Q96FI4 whole entry): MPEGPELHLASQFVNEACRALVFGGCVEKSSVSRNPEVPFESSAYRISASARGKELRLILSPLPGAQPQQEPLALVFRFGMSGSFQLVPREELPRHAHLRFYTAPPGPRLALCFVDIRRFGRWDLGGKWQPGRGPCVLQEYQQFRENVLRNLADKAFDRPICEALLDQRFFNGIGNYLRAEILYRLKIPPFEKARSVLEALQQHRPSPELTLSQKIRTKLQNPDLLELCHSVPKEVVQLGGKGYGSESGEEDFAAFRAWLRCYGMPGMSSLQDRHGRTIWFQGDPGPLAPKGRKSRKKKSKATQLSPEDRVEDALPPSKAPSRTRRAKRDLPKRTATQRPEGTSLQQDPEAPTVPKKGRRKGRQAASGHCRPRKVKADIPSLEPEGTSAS

CNC(=O)Nc1ccc2c(c1)CC[C@@]21OC(=O)N(CC(=O)N(Cc2ccc(F)cc2)[C@@H](C)C(F)(F)F)C1=O
inhibition ([1]; Compound Concentration 1.0 uM): -8.77%
inhibition ([2]; Compound Concentration 1.0 uM): -4.69%
inhibition ([3]; Compound Concentration 1.0 uM): 13.6%
inhibition [4, 10]: 100%
inhibition ([5]; Compound Concentration 1.0 uM): -7.2%
inhibition ([6]; Compound Concentration 1.0 uM): 5.87%
inhibition [7, 10]: 58.8%
inhibition ([8]; Compound Concentration 1.0 uM): 0.168%

CCn1c(=O)c(C)cn(Cc2nnc(-c3ccc(F)c(O)c3F)s2)c1=O
inhibition ([2]; Compound Concentration 10.0 uM): -4.39%
inhibition ([3]; Compound Concentration 10.0 uM): 3.85%
inhibition [4, 11]: 48%
inhibition ([5]; Compound Concentration 10.0 uM): 2%
inhibition ([6]; Compound Concentration 10.0 uM): -4.5%
inhibition [7, 11]: 53.9%
inhibition ([8]; Compound Concentration 10.0 uM): -9.23%

Cc1nc(NC(=O)N2CCC[C@H]2C(N)=O)sc1-c1ccnc(C(C)(C)C(F)(F)F)c1
inhibition ([2]; Compound Concentration 10.0 uM): 12.9%
inhibition ([3]; Compound Concentration 10.0 uM): 16.5%
inhibition [4, 11]: 38%
inhibition ([5]; Compound Concentration 10.0 uM): 12.6%
inhibition ([6]; Compound Concentration 10.0 uM): 2.95%
inhibition [7, 11]: -5.03%
inhibition ([8]; Compound Concentration 10.0 uM): 6.32%

CN(C)CCN(Cc1ccc(-c2ccc(CNCCc3ccccc3)cc2)cc1)C(=O)CCC1CCCC1
inhibition ([1]; Compound Concentration 10.0 uM): 4.6%
inhibition ([2]; Compound Concentration 10.0 uM): 3.9%
inhibition ([3]; Compound Concentration 10.0 uM): -6.4%
inhibition [4, 12]: 80.3%
inhibition ([5]; Compound Concentration 10.0 uM): 8%
inhibition ([6]; Compound Concentration 10.0 uM): 1.96%
inhibition [7, 12]: 78.7%
inhibition ([8]; Compound Concentration 10.0 uM): 93.4%

COCCOc1nc(-c2ccc(Cl)nc2)nc2c1CN(C(=O)c1ncn3ccccc13)CC2
inhibition ([1]; Compound Concentration 1.0 uM): -3.17%
inhibition ([2]; Compound Concentration 1.0 uM): -1.84%
inhibition ([3]; Compound Concentration 1.0 uM): 8.24%
inhibition [4, 10]: 39.9%
inhibition ([5]; Compound Concentration 1.0 uM): -3.92%
inhibition ([6]; Compound Concentration 1.0 uM): -0.22%
inhibition [7, 10]: 67.8%
inhibition ([8]; Compound Concentration 1.0 uM): -6.39%

O=c1ccc2ccc(OCCCCN3CCN(c4cccc5sccc45)CC3)cc2[nH]1
inhibition ([1]; Compound Concentration 10.0 uM): 6.47%
inhibition ([2]; Compound Concentration 10.0 uM): -3.25%
inhibition ([3]; Compound Concentration 10.0 uM): -9.19%
inhibition [4, 11]: -1.81%
inhibition ([5]; Compound Concentration 10.0 uM): 4.86%
inhibition [9]: -1.98%
inhibition [7, 11]: -1.94%
inhibition ([8]; Compound Concentration 10.0 uM): 3.6%

O[C@H]1CC[C@H](Nc2ncc3nc(Nc4c(F)cc(F)cc4F)n([C@H]4CCOC4)c3n2)CC1
inhibition ([2]; Compound Concentration 10.0 uM): 6.26%
inhibition ([3]; Compound Concentration 10.0 uM): 20.8%
inhibition [4, 11]: 37.3%
inhibition ([5]; Compound Concentration 10.0 uM): 1.48%
inhibition ([6]; Compound Concentration 10.0 uM): 2.17%
inhibition [7, 11]: -7.12%
inhibition ([8]; Compound Concentration 10.0 uM): 1.28%

CC(C)(C)c1ccc(C(=O)Nc2cn3cc(-n4ccnc4)ccc3n2)cc1
inhibition ([1]; Compound Concentration 10.0 uM): -0.391%
inhibition ([2]; Compound Concentration 10.0 uM): 22.7%
inhibition ([3]; Compound Concentration 10.0 uM): 16.9%
inhibition [4, 11]: 51.5%
inhibition ([5]; Compound Concentration 10.0 uM): -0.61%
inhibition ([6]; Compound Concentration 10.0 uM): 4.09%
inhibition [7, 11]: 1.23%
inhibition ([8]; Compound Concentration 10.0 uM): 6.44%

COc1ccc(OC(=O)N(CC(=O)O)Cc2ccc(OCCc3nc(-c4ccccc4)oc3C)cc2)cc1
inhibition ([2]; Compound Concentration 10.0 uM): 27%
inhibition ([3]; Compound Concentration 10.0 uM): 20.2%
inhibition [4, 11]: 53.7%
inhibition ([5]; Compound Concentration 10.0 uM): 5.94%
inhibition ([6]; Compound Concentration 10.0 uM): 3.56%
inhibition [7, 11]: 67.6%
inhibition ([8]; Compound Concentration 10.0 uM): 29.2%

CN(C)C(=O)Cn1cc(-c2ccc(-c3nnc4ccccn34)cc2)cn1
inhibition ([1]; Compound Concentration 1.0 uM): -1.84%
inhibition ([2]; Compound Concentration 1.0 uM): 3.29%
inhibition ([3]; Compound Concentration 1.0 uM): 22.7%
inhibition ([4]; Compound Concentration 1.0 uM, Hit Yes): 100%
inhibition ([5]; Compound Concentration 1.0 uM): -9.68%
inhibition ([6]; Compound Concentration 1.0 uM): 2.39%
inhibition [7, 10]: 7.42%
inhibition ([8]; Compound Concentration 1.0 uM): 27.4%

CN(C)C(=O)N1CC[C@H](NC2=Nc3cc(F)ccc3N(CC(F)F)c3ccc(Cl)cc32)C1
inhibition ([1]; Compound Concentration 10.0 uM): -0.787%
inhibition ([2]; Compound Concentration 10.0 uM): -5.59%
inhibition ([3]; Compound Concentration 10.0 uM): 19.6%
inhibition [4, 11]: 38.4%
inhibition ([5]; Compound Concentration 10.0 uM): -2.7%
inhibition ([6]; Compound Concentration 10.0 uM): 6.61%
inhibition [7, 11]: -7.39%
inhibition ([8]; Compound Concentration 10.0 uM): 36.6%

CCOCCn1cc(C(=O)Nc2ccc(-n3nc(-c4cccnc4)cc3C(F)(F)F)cn2)ccc1=O
inhibition ([1]; Compound Concentration 10.0 uM): -4.68%
inhibition ([2]; Compound Concentration 10.0 uM): 3.33%
inhibition ([3]; Compound Concentration 10.0 uM): 18.6%
inhibition [4, 11]: 35.4%
inhibition ([5]; Compound Concentration 10.0 uM): 0.685%
inhibition ([6]; Compound Concentration 10.0 uM): 1.33%
inhibition [7, 11]: 54.1%
inhibition ([8]; Compound Concentration 10.0 uM): -6.66%

Cc1nccc(COC(=O)N2C[C@@H]3[C@@H](CNC(=O)c4ccc5[nH]nnc5c4)[C@@H]3C2)n1
inhibition ([2]; Compound Concentration 10.0 uM): -5.03%
inhibition ([3]; Compound Concentration 10.0 uM): 19.9%
inhibition [4, 11]: 59.6%
inhibition ([5]; Compound Concentration 10.0 uM): 0.685%
inhibition ([6]; Compound Concentration 10.0 uM): 1.28%
inhibition [7, 11]: 55.9%
inhibition ([8]; Compound Concentration 10.0 uM): 10.4%

COC[C@H](NC(=O)c1ccn(S(C)(=O)=O)c1)C(=O)Nc1nc(-c2cccc(-c3ccn(C)n3)c2)cs1
inhibition ([2]; Compound Concentration 1.0 uM): -7.59%
inhibition ([3]; Compound Concentration 1.0 uM): 16.9%
inhibition [4, 10]: 48.2%
inhibition ([5]; Compound Concentration 1.0 uM): -3.92%
inhibition ([6]; Compound Concentration 1.0 uM): 4.22%
inhibition [7, 10]: 43.1%
inhibition ([8]; Compound Concentration 1.0 uM): 2.68%

CC(C)(C)NC[C@H](O)COc1nsnc1N1CCOCC1
inhibition ([1]; Compound Concentration 10.0 uM): -6.13%
inhibition ([2]; Compound Concentration 10.0 uM): -3.29%
inhibition ([3]; Compound Concentration 10.0 uM): -0.808%
inhibition [4, 11]: 9.57%
inhibition ([5]; Compound Concentration 10.0 uM): -8.34%
inhibition [9]: -5.47%
inhibition [7, 11]: 2.07%
inhibition ([8]; Compound Concentration 10.0 uM): 2.84%

CN1C2CCCC1CC(Nc1ccccc1Br)C2 (configuration not stated)
inhibition ([1]; Compound Concentration 10.0 uM): -3.4%
inhibition ([3]; Compound Concentration 10.0 uM): -9%
inhibition [4, 11]: -8.71%
inhibition ([5]; Compound Concentration 10.0 uM): 24.5%
inhibition [9]: -3.41%
inhibition ([6]; Compound Concentration 10.0 uM): -6.41%
inhibition [7, 11]: 11.1%
inhibition ([8]; Compound Concentration 10.0 uM): 6.82%

Cn1cncc1[C@@](O)(COc1ccc(C#N)cc1-c1ccc(OC(F)(F)F)cc1)c1ccc(C#N)cc1
inhibition ([2]; Compound Concentration 10.0 uM): 10.2%
inhibition ([3]; Compound Concentration 10.0 uM): -1.81%
inhibition [4, 11]: 45.8%
inhibition ([5]; Compound Concentration 10.0 uM): 7.26%
inhibition ([6]; Compound Concentration 10.0 uM): -3.07%
inhibition [7, 11]: 56%
inhibition ([8]; Compound Concentration 10.0 uM): -9.72%

O=C1N/C(=N/c2ccccc2F)S/C1=C\c1ccc(C(=O)O)cc1
inhibition ([1]; Compound Concentration 10.0 uM): -0.204%
inhibition ([2]; Compound Concentration 10.0 uM): -2.53%
inhibition ([3]; Compound Concentration 10.0 uM): -0.227%
inhibition [4, 11]: 3.04%
inhibition ([5]; Compound Concentration 10.0 uM): 17.3%
inhibition [9]: 3.51%
inhibition [7, 11]: -3.22%
inhibition ([8]; Compound Concentration 10.0 uM): 3.09%
